Data: article PMC6974402 (Nature, 2019)

Assays:
SAP1 = target: T1, SAP1 (Anopheles gambiae, UniProt Q7Q3U7); test: 1-NPN fluorescence displacement; assay type: binding
T1 sequence (Q7Q3U7 18-127): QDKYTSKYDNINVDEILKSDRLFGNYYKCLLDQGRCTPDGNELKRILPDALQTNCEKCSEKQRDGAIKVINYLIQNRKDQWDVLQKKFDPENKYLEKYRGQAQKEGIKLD

SAP3 = target: T2, SAP3 (Anopheles gambiae, UniProt Q6H8Z2); test: 1-NPN fluorescence displacement; assay type: binding
T2 sequence (Q6H8Z2 18-126): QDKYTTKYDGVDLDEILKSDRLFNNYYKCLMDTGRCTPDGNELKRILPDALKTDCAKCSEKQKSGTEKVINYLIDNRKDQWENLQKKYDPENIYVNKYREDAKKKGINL

Row | SMILES | IC50 (SAP1) [µM] | IC50 (SAP3) [µM]
1 | CC1(C)[C@H](C(=O)O[C@H](C#N)c2cccc(Oc3ccccc3)c2)[C@@H]1C=C(Br)Br [deltamethrin] | > 10 | > 10
2 | CC1(C)C(C=C(Cl)Cl)C1C(=O)OC(C#N)c1cccc(Oc2ccccc2)c1 (stereo not drawn) [α-cypermethrin] | 9.02 | 
